From ChEMBL document CHEMBL1153340, “Inhibitors of HIV-1 attachment. Part 2: An initial survey of indole substitution patterns” (Bioorg Med Chem Lett, 2009)
pEC50: −log10 of the molar value. ≈ marks a conversion by molar mass, not a printed value.

Assays:
[1] = Cmax in dog at 1 mg/kg, po dosed as solution in PEG400/EtOH; assay type: ADME, organism-based, Canis lupus familiaris; design: dose 1 mg/kg, route oral; details: in vivo
[2] = Oral bioavailability in rat at 25 mg/kg dosed as solution in PEG400/EtOH; assay type: ADME, organism-based; details: in vivo
[3] = Tmax in dog at 1 mg/kg, po dosed as solution in PEG400/EtOH; assay type: ADME, organism-based, Canis lupus familiaris; design: dose 1 mg/kg, route oral; details: in vivo
[4] = Oral bioavailability in dog at 1 mg/kg dosed as solution in PEG400/EtOH; assay type: ADME, organism-based, Canis lupus familiaris; details: in vivo
[5] = Cmax in dog at 1 mg/kg, po dosed as micronized suspension; assay type: ADME, organism-based, Canis lupus familiaris; design: dose 1 mg/kg, route oral; details: in vivo
[6] = Terminal half life in rat at 5 mg/kg, iv dosed as solution in PEG400/EtOH; assay type: ADME, organism-based; design: dose 5 mg/kg, route intravenous; details: in vivo, read-out: beta t1/2
[7] = Oral bioavailability in rat at 5 mg/kg dosed as solution in PEG400/EtOH; assay type: ADME, organism-based; details: in vivo
[8] = Oral bioavailability in dog at 1 mg/kg dosed as nanosuspension; assay type: ADME, organism-based, Canis lupus familiaris; details: in vivo
[9] = Terminal half life in rat at 25 mg/kg, po dosed as solution in PEG400/EtOH; assay type: ADME, organism-based; design: dose 25 mg/kg, route oral; details: in vivo, read-out: beta t1/2
[10] = Oral bioavailability in dog at 1 mg/kg dosed as micronized suspension; assay type: ADME, organism-based, Canis lupus familiaris; details: in vivo
[11] = Mean residence time in rat at 5 mg/kg, iv dosed as solution in PEG400/EtOH; assay type: ADME, organism-based; design: dose 5 mg/kg, route intravenous; details: in vivo
[12] = Cmax in rat at 5 mg/kg, po dosed as nanosuspension; assay type: ADME, organism-based; design: dose 5 mg/kg, route oral; details: in vivo
[13] = Cmax in dog at 1 mg/kg, po dosed as nanosuspension; assay type: ADME, organism-based, Canis lupus familiaris; design: dose 1 mg/kg, route oral; details: in vivo
[14] = Tmax in rat at 5 mg/kg, po dosed as solution in PEG400/EtOH; assay type: ADME, organism-based; design: dose 5 mg/kg, route oral; details: in vivo
[15] = Oral bioavailability in rat at 5 mg/kg dosed as nanosuspension; assay type: ADME, organism-based; details: in vivo
[16] = Cmax in rat at 25 mg/kg, po dosed as solution in PEG400/EtOH; assay type: ADME, organism-based; design: dose 25 mg/kg, route oral; details: in vivo
[17] = system: Human immunodeficiency virus 1; test: Antiviral activity against pseudotype HIV1 JRFL infected in human HeLa67 cells expressing CD4/CCR5 after 3 days by luciferase reporter gene assay; assay type: functional, organism-based; details: Human immunodeficiency virus 1, JRFL, HeLa67, 72 h
[18] = Tmax in dog at 1 mg/kg, po dosed as micronized suspension; assay type: ADME, organism-based, Canis lupus familiaris; design: dose 1 mg/kg, route oral; details: in vivo
[19] = Tmax in rat at 5 mg/kg, po dosed as nanosuspension; assay type: ADME, organism-based; design: dose 5 mg/kg, route oral; details: in vivo
[20] = Tmax in rat at 25 mg/kg, po dosed as solution in PEG400/EtOH; assay type: ADME, organism-based; design: dose 25 mg/kg, route oral; details: in vivo
[21] = Volume of distribution at steady state in rat at 5 mg/kg, iv dosed as solution in PEG400/EtOH; assay type: ADME, organism-based; design: dose 5 mg/kg, route intravenous; details: in vivo, read-out: Vdss
[22] = Permeability across human Caco-2 cells; assay type: ADME, cell-based; details: read-out: permeability
[23] = Tmax in dog at 1 mg/kg, po dosed as nanosuspension; assay type: ADME, organism-based, Canis lupus familiaris; design: dose 1 mg/kg, route oral; details: in vivo
[24] = Clearance in rat at 5 mg/kg, iv dosed as solution in PEG400/EtOH; assay type: ADME, organism-based; design: dose 5 mg/kg, route intravenous; details: in vivo
[25] = Solubility in water; assay type: physicochemical; details: buffer
[26] = Solubility in poly ethylene glycol 400; assay type: physicochemical; details: polyethylene glycol 400
[27] = Cytotoxicity against human HeLa67 cells expressing CD4/CCR5 after 3 days by XTT assay; assay type: cell-based

O=C(C(=O)N1CCN(C(=O)c2ccccc2)CC1)c1c[nH]c2cccc(F)c12
Cmax [1]: 560 ng/mL | bioavailability [2]: 17% | Tmax [3]: 1.2 h | bioavailability [4]: 89% | Cmax [5]: 60 ng/mL | half-life [6]: 0.467 h | bioavailability [7]: 9% | bioavailability [8]: 36% | half-life [9]: 1.2 h | bioavailability [10]: 12% | MRT [11]: 0.35 h | Cmax [12]: 18 ng/mL | Cmax [13]: 160 ng/mL | Tmax [14]: 0.617 h | bioavailability [15]: 4% | Cmax [16]: 649 ng/mL | pEC50 [17]: 8.59 | Tmax [18]: 4 h | Tmax [19]: 2.83 h | Tmax [20]: 0.883 h | Vd [21]: 0.99 L/kg | Papp [22]: 10 ×10⁻⁶ cm/s | Tmax [23]: 1.8 h | clearance [24]: 48 mL/min/kg | solubility [25]: 0.005 µg/mL (≈ 1.32e-05 mM) | solubility [26]: 4600 µg/mL (≈ 12.1 mM) | CC50 at 72 h [27]: > 300000 nM
